The results in this text go back to ChEMBL document CHEMBL1154409, “Contribution of the CmeABC efflux pump to macrolide and tetracycline resistance in Campylobacter jejuni” (2007).

For experiment [1], the target named is T1, CmeA (Campylobacter jejuni) (UniProt Q8RTE5).
T1 sequence (whole entry): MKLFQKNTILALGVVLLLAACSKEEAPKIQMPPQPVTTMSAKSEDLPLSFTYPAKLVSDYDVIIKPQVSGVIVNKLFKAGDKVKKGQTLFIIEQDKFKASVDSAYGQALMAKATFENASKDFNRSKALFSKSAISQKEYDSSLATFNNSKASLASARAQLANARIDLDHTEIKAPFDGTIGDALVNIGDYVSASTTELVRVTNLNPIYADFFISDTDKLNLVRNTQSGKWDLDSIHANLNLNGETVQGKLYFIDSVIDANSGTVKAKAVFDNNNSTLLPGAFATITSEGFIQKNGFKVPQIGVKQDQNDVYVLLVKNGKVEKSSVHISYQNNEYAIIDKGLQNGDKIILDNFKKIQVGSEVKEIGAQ
Description: Inactivation of CmeABC efflux pump in Campylobacter jejuni 25-19 assessed as change in clarithromycin MIC by agar dilution method.

In experiment [2] the test system is Campylobacter jejuni. As to the kind of experiment: Inactivation of CmeABC efflux pump in Campylobacter jejuni 25-19 assessed as change in erythromycin MIC by agar dilution method.
The test system of experiment [3] is Campylobacter jejuni. Description: Ratio of MIC for Campylobacter jejuni 001B-40 carrying A2075G mutation in 23S rRNA to MIC for Campylobacter jejuni 001B-40 cmeB::kanamycin-resistant mutant. The experiment is classed as functional.
Experiment [4] relates to Campylobacter jejuni. As to the kind of experiment: Antibacterial activity against Campylobacter jejuni 001B-22 cmeB::kanamycin-resistant mutant by agar dilution method. It counts as functional. (In general: In agar dilution the substance is mixed into plates at graded concentrations.)
Experiment [5] concerns Campylobacter jejuni. Description: Antibacterial activity against Campylobacter jejuni UA709 carrying A2074C mutation in 23S rRNA by agar dilution method. The experiment is classed as functional.
Experiment [6] has as its system Campylobacter jejuni. Description: Antibacterial activity against Campylobacter jejuni 001B-22 carrying A2075G mutation in 23S rRNA by agar dilution method. It counts as functional.
Experiment [7] relates to Campylobacter jejuni. Description: Antibacterial activity against Campylobacter jejuni 001B-40 cmeB::kanamycin-resistant mutant by agar dilution method. The experiment is classed as functional.
Experiment [8] has as its system Campylobacter jejuni. Description: Ratio of MIC for Campylobacter jejuni 001B-22 carrying A2075G mutation in 23S rRNA to MIC for Campylobacter jejuni 001B-22 cmeB::kanamycin-resistant mutant. The experiment is classed as functional.
In experiment [9] the test system is Campylobacter jejuni. As to the kind of experiment: Antibacterial activity against Campylobacter jejuni 001B-40 carrying A2075G mutation in 23S rRNA by agar dilution method. It counts as functional.
For experiment [10], the system named is Campylobacter jejuni. As to the kind of experiment: Antibacterial activity against Campylobacter jejuni UA709 cmeB::kanamycin-resistant mutant by agar dilution method. It counts as functional.
For experiment [11], the system named is Campylobacter jejuni. As to the kind of experiment: Antibacterial activity against Campylobacter jejuni 15-21 by […]. The experiment is classed as functional.
For experiment [12], the system named is Campylobacter jejuni. As to the kind of experiment: Antibacterial activity against Campylobacter jejuni 25-19 by agar dilution method. It counts as functional.
For experiment [13], the system named is Escherichia coli. Description: Antibacterial activity against Escherichia coli EW1b containing pDOB47. It counts as functional.
The subject of experiment [14] is Campylobacter jejuni. As to the kind of experiment: Antibacterial activity against Campylobacter jejuni 25-45 cmeB:: Kanamycin-resistant mutant by agar dilution method. The experiment is classed as functional.
For experiment [15], the system named is Campylobacter jejuni. Description: Antibacterial activity against Campylobacter jejuni 23-51 cme:: Kanamycin-resistant mutant assessed by agar dilution method. It counts as functional.
The test system of experiment [16] is Campylobacter jejuni. As to the kind of experiment: Antibacterial activity against Campylobacter jejuni 81-176 carrying tet(O)+ gene by agar dilution method. The experiment is classed as functional.
In experiment [17] the test system is Campylobacter jejuni. Description: Antibacterial activity against Campylobacter jejuni 25-19 cmeB:: Kanamycin-resistant mutant by agar dilution method. It counts as functional.
The test system of experiment [18] is Campylobacter jejuni. As to the kind of experiment: Antibacterial activity against Campylobacter jejuni 25-45 by agar dilution method. It counts as functional.
The subject of experiment [19] is Escherichia coli. Description: Antibacterial activity against wild type Escherichia coli DH5alpha by agar dilution assay. It counts as functional.
Experiment [20] has as its system Campylobacter jejuni. As to the kind of experiment: Antibacterial activity against Campylobacter jejuni 23-51 assessed as inhibition of CmeABC efflux pump by agar dilution method. The experiment is classed as functional.
Experiment [21] concerns Campylobacter jejuni. Description: Antibacterial activity against Campylobacter jejuni 81-176 cmeB: kanamycin-resistant mutant carrying tet(O)+ gene. The experiment is classed as functional.
The subject of experiment [22] is Campylobacter jejuni. Description: Antibacterial activity against Campylobacter jejuni 15-21 cmeB:: Kanamycin-resistant mutant by agar dilution method. It counts as functional.

Values after ≈ are worked out from the molar mass of the structure shown. Peptide text beside a SMILES is read from it. * marks the point of attachment. βNA = c1ccc2cc(N*)ccc2c1 A value given as a limit tells only on which side of the number the result lay.

Regarding `N=C(N)NCCC[C@H](NC(=O)[C@@H](N)Cc1ccccc1)C(=O)Nc1ccc2ccccc2c1` (H-Phe-Arg-βNA), the results for the fold change (FC) (in experiment [1]; with Campylobacter jejuni [2]) were 2 and 3, respectively.

Turning to `CC[C@H]1OC(=O)[C@H](C)[C@@H](O[C@H]2C[C@@](C)(OC)[C@@H](O)[C@H](C)O2)[C@H](C)[C@@H](O[C@@H]2O[C@H](C)C[C@H](N(C)C)[C@H]2O)[C@](C)(OC)C[C@@H](C)C(=O)[C@H](C)[C@@H](O)[C@]1(C)O` [CLARITHROMYCIN], the results for the fold change (FC) in the experiment on Campylobacter jejuni [2], in the experiment on Campylobacter jejuni [3] and in the experiment on Campylobacter jejuni [8] were 2, more than 32 and 16, respectively. In addition, the MIC with Campylobacter jejuni [4] turned out to be 4 µg/mL (≈ 5.35 µM); in the experiment on Campylobacter jejuni [5], 128 µg/mL (≈ 171 µM); with Campylobacter jejuni [6], 64 µg/mL (≈ 85.6 µM); against Campylobacter jejuni [7], 8 µg/mL (≈ 10.7 µM); in the experiment on Campylobacter jejuni [9], 265 µg/mL (≈ 354 µM); against Campylobacter jejuni [10], 128 µg/mL (≈ 171 µM).

For the compound `CC[C@H]1OC(=O)[C@H](C)[C@@H](O[C@H]2C[C@@](C)(OC)[C@@H](O)[C@H](C)O2)[C@H](C)[C@@H](O[C@@H]2O[C@H](C)C[C@H](N(C)C)[C@H]2O)[C@](C)(O)C[C@@H](C)C(=O)[C@H](C)[C@@H](O)[C@]1(C)O` [ERYTHROMYCIN], the MIC against Campylobacter jejuni [4] is 4 µg/mL (≈ 5.45 µM); with Campylobacter jejuni [5], 1020 µg/mL (≈ 1400 µM); with Campylobacter jejuni [6], 256 µg/mL (≈ 349 µM); against Campylobacter jejuni [7], 8 µg/mL (≈ 10.9 µM); in the experiment on Campylobacter jejuni [9], more than 1020 µg/mL; against Campylobacter jejuni [10] it was 1020 µg/mL (≈ 1400 µM). Besides, the “fold change (FC)” value in the experiment with Campylobacter jejuni [8] is recorded as 64.

For `CN(C)[C@@H]1C(O)=C(C(N)=O)C(=O)[C@@]2(O)C(O)=C3C(=O)c4c(O)cccc4[C@@](C)(O)[C@H]3C[C@@H]12` [TETRACYCLINE], the minimal inhibitory concentration (MIC) stood at 128 µg/mL (≈ 288 µM) in the experiment with Campylobacter jejuni [11]; 64 µg/mL (≈ 144 µM) against Campylobacter jejuni [12]; 16 µg/mL (≈ 36 µM) in the experiment with Escherichia coli [13]; 8 µg/mL (≈ 18 µM) in the experiment on Campylobacter jejuni [14]; 8 µg/mL (≈ 18 µM) against Campylobacter jejuni [15]; 32 µg/mL (≈ 72 µM) in the experiment with Campylobacter jejuni [16]. Further, the MIC against Campylobacter jejuni [17] turned out to be 4 µg/mL (≈ 9 µM); with Campylobacter jejuni [18], 256 µg/mL (≈ 576 µM); in the experiment with Escherichia coli [19] it was 64 µg/mL (≈ 144 µM); with Campylobacter jejuni [20], 512 µg/mL (≈ 1150 µM); in the experiment with Campylobacter jejuni [21] it was 2 µg/mL (≈ 4.5 µM); with Campylobacter jejuni [22], 4 µg/mL (≈ 9 µM).

A word on the MIC: it is the least concentration at which growth counts as inhibited.
